Assay results: ChEMBL document CHEMBL3991601, “The target landscape of clinical kinase drugs” (Science, 2017)
Activity calls are given as the source filed them.

Key:
[1] = biological target: Serine/threonine-protein kinase SIK2 (Homo sapiens, UniProt Q9H0K1)
[2] = biological target: T1, Phenylalanine--tRNA ligase beta subunit (Homo sapiens, UniProt Q9NSD9)
T1 sequence (Q9NSD9 whole entry): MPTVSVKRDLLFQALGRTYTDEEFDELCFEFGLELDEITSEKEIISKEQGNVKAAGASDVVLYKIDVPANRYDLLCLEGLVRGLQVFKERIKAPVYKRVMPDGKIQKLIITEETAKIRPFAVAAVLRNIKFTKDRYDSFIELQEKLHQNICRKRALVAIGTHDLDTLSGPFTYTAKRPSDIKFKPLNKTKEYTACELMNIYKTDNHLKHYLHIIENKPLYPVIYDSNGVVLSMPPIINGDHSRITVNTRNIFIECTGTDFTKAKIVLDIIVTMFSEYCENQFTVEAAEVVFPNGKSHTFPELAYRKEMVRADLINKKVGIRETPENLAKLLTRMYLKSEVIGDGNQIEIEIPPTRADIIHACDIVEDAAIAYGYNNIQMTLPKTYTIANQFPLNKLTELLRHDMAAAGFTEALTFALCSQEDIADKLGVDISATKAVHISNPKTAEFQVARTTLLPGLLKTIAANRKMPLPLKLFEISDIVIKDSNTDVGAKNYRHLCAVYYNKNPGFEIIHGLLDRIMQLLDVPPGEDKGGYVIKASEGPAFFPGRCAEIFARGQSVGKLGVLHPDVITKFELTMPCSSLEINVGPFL

[3] = biological target: T2, Serine/threonine-protein kinase TBK1 (Homo sapiens, UniProt Q9UHD2)
T2 sequence (Q9UHD2 whole entry): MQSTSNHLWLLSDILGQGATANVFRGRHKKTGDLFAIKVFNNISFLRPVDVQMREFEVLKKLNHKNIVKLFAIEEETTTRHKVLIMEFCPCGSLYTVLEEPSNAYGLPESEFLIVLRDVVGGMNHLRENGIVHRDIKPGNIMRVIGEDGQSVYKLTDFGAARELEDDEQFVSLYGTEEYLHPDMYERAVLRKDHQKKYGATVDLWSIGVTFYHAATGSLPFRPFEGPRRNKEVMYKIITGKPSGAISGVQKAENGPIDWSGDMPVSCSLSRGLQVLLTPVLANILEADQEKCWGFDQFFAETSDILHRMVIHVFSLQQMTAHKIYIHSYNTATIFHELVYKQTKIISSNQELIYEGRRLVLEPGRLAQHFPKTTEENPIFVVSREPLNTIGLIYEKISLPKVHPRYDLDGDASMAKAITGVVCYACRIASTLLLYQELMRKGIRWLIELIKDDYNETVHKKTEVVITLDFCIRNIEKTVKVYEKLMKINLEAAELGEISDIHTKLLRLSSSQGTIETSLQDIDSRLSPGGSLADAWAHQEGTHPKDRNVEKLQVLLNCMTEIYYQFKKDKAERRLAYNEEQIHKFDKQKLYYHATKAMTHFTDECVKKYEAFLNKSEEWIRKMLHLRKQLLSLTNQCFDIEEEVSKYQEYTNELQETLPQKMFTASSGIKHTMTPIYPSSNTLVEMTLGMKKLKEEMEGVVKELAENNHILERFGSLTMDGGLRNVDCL

[4] = biological target: T3, Glycogen phosphorylase, brain form (Homo sapiens, UniProt P11216)
T3 sequence (P11216 whole entry): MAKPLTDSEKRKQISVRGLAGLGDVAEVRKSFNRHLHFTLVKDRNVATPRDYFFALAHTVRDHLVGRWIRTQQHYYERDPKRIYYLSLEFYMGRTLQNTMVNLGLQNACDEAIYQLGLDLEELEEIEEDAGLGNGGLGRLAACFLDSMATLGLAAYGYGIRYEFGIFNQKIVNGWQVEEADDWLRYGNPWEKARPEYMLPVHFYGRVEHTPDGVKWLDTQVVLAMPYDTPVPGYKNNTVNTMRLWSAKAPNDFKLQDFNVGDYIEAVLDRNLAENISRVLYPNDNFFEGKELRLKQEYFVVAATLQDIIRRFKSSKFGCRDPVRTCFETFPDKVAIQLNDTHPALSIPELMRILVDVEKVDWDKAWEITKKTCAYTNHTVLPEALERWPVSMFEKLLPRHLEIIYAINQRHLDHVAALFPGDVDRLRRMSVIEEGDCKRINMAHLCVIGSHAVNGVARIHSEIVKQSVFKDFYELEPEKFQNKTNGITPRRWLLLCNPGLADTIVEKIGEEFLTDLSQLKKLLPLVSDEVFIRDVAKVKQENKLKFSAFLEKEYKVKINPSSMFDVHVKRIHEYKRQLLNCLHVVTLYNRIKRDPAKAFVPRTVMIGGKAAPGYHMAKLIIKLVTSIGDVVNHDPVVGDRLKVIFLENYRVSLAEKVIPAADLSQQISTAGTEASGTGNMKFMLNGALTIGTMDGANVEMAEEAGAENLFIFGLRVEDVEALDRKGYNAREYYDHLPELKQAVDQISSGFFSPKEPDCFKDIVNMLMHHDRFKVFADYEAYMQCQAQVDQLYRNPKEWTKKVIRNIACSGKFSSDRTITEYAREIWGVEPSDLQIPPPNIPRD
Also: in the data inactive means no Kd found up to 30 µM.

Chain of Serine/threonine-protein kinase SIK2 (Q9H0K1 whole entry): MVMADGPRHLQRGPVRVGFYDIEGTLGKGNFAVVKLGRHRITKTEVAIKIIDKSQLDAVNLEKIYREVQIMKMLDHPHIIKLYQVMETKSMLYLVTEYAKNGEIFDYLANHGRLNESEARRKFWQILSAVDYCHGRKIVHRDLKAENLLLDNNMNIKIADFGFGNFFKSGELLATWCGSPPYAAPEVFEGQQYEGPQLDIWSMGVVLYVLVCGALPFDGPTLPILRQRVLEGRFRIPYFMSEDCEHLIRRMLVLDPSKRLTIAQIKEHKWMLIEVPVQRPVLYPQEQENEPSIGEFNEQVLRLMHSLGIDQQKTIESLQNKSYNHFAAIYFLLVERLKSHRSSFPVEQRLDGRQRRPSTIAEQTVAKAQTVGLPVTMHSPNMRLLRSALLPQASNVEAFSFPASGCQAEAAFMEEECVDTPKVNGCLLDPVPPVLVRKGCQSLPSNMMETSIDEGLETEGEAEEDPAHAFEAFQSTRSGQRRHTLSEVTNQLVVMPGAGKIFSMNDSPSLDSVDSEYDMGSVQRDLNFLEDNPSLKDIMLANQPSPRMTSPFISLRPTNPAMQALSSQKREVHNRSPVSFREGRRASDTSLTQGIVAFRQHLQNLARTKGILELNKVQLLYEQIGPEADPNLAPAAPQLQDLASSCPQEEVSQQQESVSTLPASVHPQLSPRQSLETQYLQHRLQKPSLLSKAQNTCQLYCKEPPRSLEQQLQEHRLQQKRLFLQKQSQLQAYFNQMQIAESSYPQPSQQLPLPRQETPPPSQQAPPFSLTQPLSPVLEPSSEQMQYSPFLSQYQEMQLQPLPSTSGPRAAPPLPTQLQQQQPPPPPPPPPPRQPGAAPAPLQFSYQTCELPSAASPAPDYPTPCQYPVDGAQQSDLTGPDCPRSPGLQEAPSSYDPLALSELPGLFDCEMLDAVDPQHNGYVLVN

Cc1cnc(NC(=O)Nc2cc(Br)c(C)cc2OC[C@@H]2CNCCO2)cn1 [RABUSERTIB]
Kd [1]: > 30 µM (inactive)
Kd [2]: > 30 µM (inactive)
Kd [3]: > 30 µM (inactive)
Kd [4]: > 30 µM (inactive)

CNC(=O)c1cc(Oc2ccc(NC(=O)Nc3cc(C(C)(C)C)nn3-c3ccc4ncccc4c3)c(F)c2)ccn1 [REBASTINIB]
Kd [1]: > 30 µM (inactive)
Kd [2]: > 30 µM (inactive)
Kd [3]: > 30 µM (inactive)
Kd [4]: > 30 µM (inactive)

CO[C@H]1C[C@@H]2CC[C@@H](C)[C@@](O)(O2)C(=O)C(=O)N2CCCC[C@H]2C(=O)O[C@H]([C@H](C)C[C@@H]2CC[C@@H](OP(C)(C)=O)[C@H](OC)C2)CC(=O)[C@H](C)/C=C(\C)[C@@H](O)[C@@H](OC)C(=O)[C@H](C)C[C@H](C)/C=C/C=C/C=C/1C [RIDAFOROLIMUS]
Kd [1]: > 30 µM (inactive)
Kd [2]: > 30 µM (inactive)
Kd [3]: > 30 µM (inactive)
Kd [4]: > 30 µM (inactive)

N#CC1(c2ccc(NC(=O)c3cccnc3NCc3ccncc3)cc2)CCCC1 [RIVOCERANIB]
Kd [1]: > 30 µM (inactive)
Kd [2]: > 30 µM (inactive)
Kd [3]: > 30 µM (inactive)
Kd [4]: > 30 µM (inactive)

O=c1[nH]ccc2cc(OC3CCNCC3)ccc12 [SAR-407899 FREE BASE]
Kd [1]: > 30 µM (inactive)
Kd [2]: > 30 µM (inactive)
Kd [3]: > 30 µM (inactive)
Kd [4]: > 30 µM (inactive)

CN1CCN(CCOc2cc(OC3CCOCC3)c3c(Nc4c(Cl)ccc5c4OCO5)ncnc3c2)CC1 [SARACATINIB]
Kd [1]: 1.41 µM (active)
Kd [2]: > 30 µM (inactive)
Kd [3]: > 30 µM (inactive)
Kd [4]: > 30 µM (inactive)

Cn1cc(-c2cnn3c(N)c(Br)c([C@@H]4CCCNC4)nc23)cn1 [SCH-900776]
Kd [1]: 0.27 µM (active)
Kd [2]: > 30 µM (inactive)
Kd [3]: > 30 µM (inactive)
Kd [4]: > 30 µM (inactive)

CO[C@H]1C[C@@H]2CC[C@@H](C)[C@@](O)(O2)C(=O)C(=O)N2CCCC[C@H]2C(=O)O[C@H]([C@H](C)C[C@@H]2CC[C@@H](O)[C@H](OC)C2)CC(=O)[C@H](C)/C=C(\C)[C@@H](O)[C@@H](OC)C(=O)[C@H](C)C[C@H](C)/C=C/C=C/C=C/1C [SIROLIMUS]
Kd [1]: > 30 µM (inactive)
Kd [2]: > 30 µM (inactive)
Kd [3]: > 30 µM (inactive)
Kd [4]: > 30 µM (inactive)

CCS(=O)(=O)c1cccc(-c2cc(C(=O)NC3CCN(C)CC3)c(C)c3[nH]c4ncc(C)cc4c23)c1 [TAK-901]
Kd [1]: 0.115 µM (active)
Kd [2]: > 30 µM (inactive)
Kd [3]: 2.76 µM (active)
Kd [4]: > 30 µM (inactive)

COc1cc2c(Nc3ccc(Cl)c(Cl)c3F)ncnc2cc1OC[C@@H]1C[C@@H]2CN(C)C[C@@H]2C1 [TESEVATINIB]
Kd [1]: > 30 µM (inactive)
Kd [2]: > 30 µM (inactive)
Kd [3]: > 30 µM (inactive)
Kd [4]: > 30 µM (inactive)

O=C(Cc1ccc(-c2ccc(OCCN3CCOCC3)cc2)cn1)NCc1ccccc1 [TIRBANIBULIN]
Kd [1]: > 30 µM (inactive)
Kd [2]: > 30 µM (inactive)
Kd [3]: > 30 µM (inactive)
Kd [4]: > 30 µM (inactive)

O=C1NC(=O)[C@@H](c2cn3c4c(cccc24)CCC3)[C@@H]1c1c[nH]c2ccccc12 [TIVANTINIB]
Kd [1]: > 30 µM (inactive)
Kd [2]: > 30 µM (inactive)
Kd [3]: > 30 µM (inactive)
Kd [4]: > 30 µM (inactive)

C[C@@H](NC(=O)c1ncnc(N)c1Cl)c1ncc(C(=O)Nc2cc(C(F)(F)F)c(Cl)cn2)s1 [TOVORAFENIB]
Kd [1]: > 30 µM (inactive)
Kd [2]: > 30 µM (inactive)
Kd [3]: > 30 µM (inactive)
Kd [4]: > 30 µM (inactive)

Cc1cc(Nc2ncnc3ccc(NC4=NC(C)(C)CO4)cc23)ccc1Oc1ccn2ncnc2c1 [TUCATINIB]
Kd [1]: > 30 µM (inactive)
Kd [2]: > 30 µM (inactive)
Kd [3]: > 30 µM (inactive)
Kd [4]: > 30 µM (inactive)

Cn1ncc(Cl)c1-c1cc(C(=O)N[C@H](CN)Cc2ccc(F)c(F)c2)oc1Cl [UPROSERTIB]
Kd [1]: > 30 µM (inactive)
Kd [2]: > 30 µM (inactive)
Kd [3]: > 30 µM (inactive)
Kd [4]: > 30 µM (inactive)

CC(C)c1cc(CNc2nc(Nc3cc(C4CC4)[nH]n3)cc(N3CCN(C)CC3)n2)on1 [XL-228]
Kd [1]: 1.8 µM (active)
Kd [2]: > 30 µM (inactive)
Kd [3]: 1.12 µM (active)
Kd [4]: > 30 µM (inactive)

C[C@@H](N)c1ccc(C(=O)Nc2ccnc3[nH]ccc23)cc1 [Y-39983]
Kd [1]: > 30 µM (inactive)
Kd [2]: > 30 µM (inactive)
Kd [3]: > 30 µM (inactive)
Kd [4]: > 30 µM (inactive)

CN1C/C=C/CCOc2cccc(c2)-c2ccnc(n2)Nc2cccc(c2)C1 [ZOTIRACICLIB]
Kd [1]: > 30 µM (inactive)
Kd [2]: > 30 µM (inactive)
Kd [3]: > 30 µM (inactive)
Kd [4]: > 30 µM (inactive)
